# Reference: US8664230B2, “Pyridopyrimidine derivatives and use thereof” (The Asan Foundation, priority 2011, dated 2014)
# Columns and labels:
# Assay in all cases: PI3 Kinase Activity/Inhibitor Assay (Millipore kit, competitive ELISA)
# Assay type in all cases: biochemical
# PI3Kγ = PI3Kγ (Homo sapiens (Human), UniProt P48736)
# From the text: (§1) The PI3 Kinase Activity/Inhibitor Assay Kit was purchased from Millipore. The dimethylsulfoxide was purchased from Sigma-Aldrich.
# (§2) The PI3 Kinase Activity/Inhibitor Assay is a competitive assay used for the fast and sensitive quantitation of activity of the four class I PI3 kinases (p110 α, β, γ, δ). The PI3 Kinase Activity/Inhibitor Assay works on the principle that PI3 Kinase phosphorylates P1(3,4)P2 (PIP2), converting it to PI(3,4,5)P3 (PIP3). The PH domain of the protein GRP-1 binds PIP3 with high affinity and specificity. The kit includes this recombinant protein that is used as the capture protein. This protein binds to the glutathione plate and captures either the PIP3 generated as part of the kinase reaction or the biotinylated-PIP3 tracer included in the kit. The captured biotinylated-PIP3 is detected using streptavidin-HRP conjugate and a colorimetric read out (OD 450). The lower the signal, the higher the PI3 Kinase activity.
# (§3) PI3-Kinase included in the Kit was diluted at the ratio of 1:10 with distilled water and stored on ice. The compound was prepared by diluting the stock compound to 100× of the final concentration and then diluted again at the ratio of 1:50 to make 2× of the final concentration with distilled water.
# (§4) The prepared PI3-Kinase (5 μL/well) and the compound (5 μL/well) were added to Glutathione-Coated Plate and pre-incubated at room temperature for 10 minutes. After adding 5 μL of 5× Kinase reaction buffer per well, PIP2 was diluted at the ratio of 1:20 with distilled water and 5 μL were added into each well. Distilled water was added up to 25 μL, and the reaction mixture was incubated at room temperature for an hour. Biotinylated-PIP3 was diluted at the ratio of 1:18 with 1×TBS solution and 25 μL of the mixture were put in each well excluding the buffer control well. GRP1-GST was diluted at the ratio of 1:1000 with 1×TBS solution and 50 μL of it was added to every well. The mixture was incubated at room temperature for an hour.
# (§5) After removing the solution contained in the wells, the wells were washed 4 times with 200 μL of 1×TBST. SA-HRP was diluted at the ratio of 1:2000 with 1×TBST, then 50 μL of it was added into every well and incubated at room temperature for an hour. Again after removing the solution, they were washed 5 times by adding 200 μL of 1×TBST to each well. 100 μL of TMB solution was added to every well. The plate was developed in the dark for 5-20 minutes. As blue color appeared, the reaction was stopped by adding 100 μL of stop solution to every well, and the plate was read at 450 nm with ELISA Reader (TECAN).
# (§6) For the calculation of relative percentage to biotinylated-PIP3, we take the direct absorbance at 450 nm (A450) and set the positive Biotinylated-PIP3 wells as 100 percentage. All the other signals are divided by the Biotinylated-PIP3 average, and multiplied by 100 to show the relative percentage to the positive signal. Relative % to B-PIP3=(A450 of samples include buffer, kinase & inhibitors/A450 of Biotinylated-PIP3 average)×100
# (§7) IC50 values were calculated from the values read at 450 nm by using Graphpad Prism 5 software.
# PI3Kα = PI3Kα (Homo sapiens (Human), UniProt P42336)
# From the text: as §1, §2, §3, §4, §5, §6, §7
# PI3Kδ = PI3Kδ (Homo sapiens (Human), UniProt O00329)
# From the text: as §1, §2, §3, §4, §5, §6, §7
# PI3Kγ, sequence (P48736 whole entry, species assumed): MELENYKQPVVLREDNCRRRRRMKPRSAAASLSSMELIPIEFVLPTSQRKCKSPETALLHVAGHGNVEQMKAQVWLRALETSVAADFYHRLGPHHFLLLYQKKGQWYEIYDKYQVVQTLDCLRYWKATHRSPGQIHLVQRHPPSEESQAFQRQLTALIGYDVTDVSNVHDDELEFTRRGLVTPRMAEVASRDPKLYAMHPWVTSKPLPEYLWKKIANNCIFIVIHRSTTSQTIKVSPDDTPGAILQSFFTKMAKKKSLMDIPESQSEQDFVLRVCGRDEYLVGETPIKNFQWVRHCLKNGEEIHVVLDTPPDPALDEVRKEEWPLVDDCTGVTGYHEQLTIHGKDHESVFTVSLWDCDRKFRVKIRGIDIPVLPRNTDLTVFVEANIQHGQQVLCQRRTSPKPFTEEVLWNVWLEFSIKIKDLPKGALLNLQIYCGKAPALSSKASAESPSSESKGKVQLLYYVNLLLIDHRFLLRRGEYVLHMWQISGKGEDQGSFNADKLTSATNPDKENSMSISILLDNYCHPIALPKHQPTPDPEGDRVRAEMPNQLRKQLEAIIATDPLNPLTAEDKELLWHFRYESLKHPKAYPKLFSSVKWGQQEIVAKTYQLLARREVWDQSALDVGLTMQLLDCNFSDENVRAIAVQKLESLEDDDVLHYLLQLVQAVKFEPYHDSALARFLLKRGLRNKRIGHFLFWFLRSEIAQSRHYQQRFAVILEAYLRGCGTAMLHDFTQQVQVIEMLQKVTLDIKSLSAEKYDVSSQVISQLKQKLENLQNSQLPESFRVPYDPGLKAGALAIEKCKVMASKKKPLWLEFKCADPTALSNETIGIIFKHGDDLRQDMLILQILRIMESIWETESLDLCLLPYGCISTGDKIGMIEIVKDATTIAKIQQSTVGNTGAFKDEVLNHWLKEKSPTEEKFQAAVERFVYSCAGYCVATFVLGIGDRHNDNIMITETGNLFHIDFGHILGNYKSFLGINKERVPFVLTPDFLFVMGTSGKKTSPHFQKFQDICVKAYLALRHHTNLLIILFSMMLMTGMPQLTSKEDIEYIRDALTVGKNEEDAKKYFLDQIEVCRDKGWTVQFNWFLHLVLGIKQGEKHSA
# PI3Kα, sequence (P42336 whole entry, looked up, species assumed): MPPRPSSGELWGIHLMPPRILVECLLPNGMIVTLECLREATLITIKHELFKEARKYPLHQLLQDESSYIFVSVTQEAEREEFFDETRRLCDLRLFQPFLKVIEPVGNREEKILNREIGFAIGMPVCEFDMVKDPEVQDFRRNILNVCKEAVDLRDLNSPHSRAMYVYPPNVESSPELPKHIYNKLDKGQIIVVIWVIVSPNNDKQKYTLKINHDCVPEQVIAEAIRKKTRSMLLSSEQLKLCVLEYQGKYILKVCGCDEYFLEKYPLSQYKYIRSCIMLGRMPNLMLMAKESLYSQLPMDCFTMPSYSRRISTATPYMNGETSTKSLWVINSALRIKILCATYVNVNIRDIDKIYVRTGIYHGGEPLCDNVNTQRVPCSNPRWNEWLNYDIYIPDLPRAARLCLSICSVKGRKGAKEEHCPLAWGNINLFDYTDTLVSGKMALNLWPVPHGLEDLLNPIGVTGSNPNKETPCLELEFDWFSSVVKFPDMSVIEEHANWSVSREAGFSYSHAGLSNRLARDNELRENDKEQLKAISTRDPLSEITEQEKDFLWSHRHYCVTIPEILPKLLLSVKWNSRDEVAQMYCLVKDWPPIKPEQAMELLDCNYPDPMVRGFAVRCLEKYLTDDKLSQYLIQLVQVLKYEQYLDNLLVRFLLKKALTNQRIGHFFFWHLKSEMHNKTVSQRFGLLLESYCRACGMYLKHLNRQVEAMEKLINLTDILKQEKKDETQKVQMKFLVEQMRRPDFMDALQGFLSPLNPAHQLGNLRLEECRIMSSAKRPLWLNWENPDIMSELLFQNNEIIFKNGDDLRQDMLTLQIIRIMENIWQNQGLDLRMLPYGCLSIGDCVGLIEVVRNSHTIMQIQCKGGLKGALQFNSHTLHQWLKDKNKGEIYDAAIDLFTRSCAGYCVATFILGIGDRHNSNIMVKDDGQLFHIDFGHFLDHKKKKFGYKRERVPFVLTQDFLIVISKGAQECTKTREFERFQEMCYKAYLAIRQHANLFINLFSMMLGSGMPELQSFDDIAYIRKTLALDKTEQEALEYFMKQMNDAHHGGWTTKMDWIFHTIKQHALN
# PI3Kα, sequence (P27986 whole entry partner, looked up, species assumed): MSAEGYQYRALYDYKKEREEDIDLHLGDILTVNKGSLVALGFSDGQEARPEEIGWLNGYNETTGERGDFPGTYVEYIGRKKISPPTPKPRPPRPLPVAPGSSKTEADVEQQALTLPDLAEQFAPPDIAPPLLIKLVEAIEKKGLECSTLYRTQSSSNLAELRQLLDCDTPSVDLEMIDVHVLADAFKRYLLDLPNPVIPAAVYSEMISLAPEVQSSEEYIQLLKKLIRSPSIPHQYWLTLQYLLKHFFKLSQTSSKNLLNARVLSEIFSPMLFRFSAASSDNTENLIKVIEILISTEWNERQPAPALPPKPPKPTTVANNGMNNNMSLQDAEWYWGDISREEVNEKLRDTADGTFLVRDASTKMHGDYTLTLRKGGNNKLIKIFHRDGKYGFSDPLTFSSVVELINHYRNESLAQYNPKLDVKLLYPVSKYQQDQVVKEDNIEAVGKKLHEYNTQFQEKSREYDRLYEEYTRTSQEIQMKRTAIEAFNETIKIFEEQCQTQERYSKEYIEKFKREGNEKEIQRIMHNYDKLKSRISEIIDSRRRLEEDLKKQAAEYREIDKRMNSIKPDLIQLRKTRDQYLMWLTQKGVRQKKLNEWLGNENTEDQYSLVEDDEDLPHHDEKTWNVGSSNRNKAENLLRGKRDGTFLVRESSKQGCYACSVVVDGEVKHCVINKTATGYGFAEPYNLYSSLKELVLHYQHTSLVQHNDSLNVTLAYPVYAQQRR
# PI3Kδ, sequence (O00329 whole entry, species assumed): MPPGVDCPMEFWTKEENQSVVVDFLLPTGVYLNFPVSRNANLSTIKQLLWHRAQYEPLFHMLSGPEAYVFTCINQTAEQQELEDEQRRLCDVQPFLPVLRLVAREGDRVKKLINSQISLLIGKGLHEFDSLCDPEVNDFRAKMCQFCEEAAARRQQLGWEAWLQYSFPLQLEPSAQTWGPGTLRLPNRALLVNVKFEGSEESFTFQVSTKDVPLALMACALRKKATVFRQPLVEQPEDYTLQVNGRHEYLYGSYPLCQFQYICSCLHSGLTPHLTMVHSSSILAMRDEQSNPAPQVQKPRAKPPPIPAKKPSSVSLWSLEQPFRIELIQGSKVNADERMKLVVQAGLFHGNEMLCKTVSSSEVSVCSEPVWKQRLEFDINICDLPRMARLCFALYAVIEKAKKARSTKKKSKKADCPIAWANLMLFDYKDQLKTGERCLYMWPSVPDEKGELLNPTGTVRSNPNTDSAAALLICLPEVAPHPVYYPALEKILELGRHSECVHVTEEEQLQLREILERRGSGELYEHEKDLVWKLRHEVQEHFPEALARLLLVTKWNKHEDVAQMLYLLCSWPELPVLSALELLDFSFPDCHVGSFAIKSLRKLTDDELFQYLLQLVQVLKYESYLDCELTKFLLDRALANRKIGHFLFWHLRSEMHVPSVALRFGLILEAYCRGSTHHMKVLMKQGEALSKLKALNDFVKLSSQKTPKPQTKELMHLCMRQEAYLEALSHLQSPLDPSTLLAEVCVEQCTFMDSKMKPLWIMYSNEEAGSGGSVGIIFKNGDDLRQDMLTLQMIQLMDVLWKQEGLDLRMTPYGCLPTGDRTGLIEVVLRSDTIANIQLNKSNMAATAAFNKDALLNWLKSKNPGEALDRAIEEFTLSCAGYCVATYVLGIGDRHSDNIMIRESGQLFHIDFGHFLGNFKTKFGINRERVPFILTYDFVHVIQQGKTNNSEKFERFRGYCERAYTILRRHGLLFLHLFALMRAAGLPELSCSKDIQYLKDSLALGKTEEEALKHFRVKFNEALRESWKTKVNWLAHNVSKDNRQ
# PI3Kδ, sequence (P27986 whole entry partner, species assumed): as the sequence (P27986 whole entry partner, looked up, species assumed) above
IC50 (PI3Kγ),IC50 (PI3Kα),IC50 (PI3Kδ),SMILES
< 1 µM,< 10 µM,< 10 µM,O=S(=O)(Nc1cncc(-c2ccc3ncnc(Oc4cccnc4)c3n2)c1)c1ccccc1
< 1 µM,< 10 µM,< 10 µM,O=S(=O)(Nc1cncc(-c2ccc3ncnc(OC4CCOCC4)c3n2)c1)c1ccccc1
< 10 µM,< 10 µM,< 10 µM,CN1CCC(Oc2ncnc3ccc(-c4cncc(NS(=O)(=O)c5ccccc5)c4)nc23)CC1

# The remaining lines, values behind:
SMILES,IC50 (PI3Kγ),IC50 (PI3Kα),IC50 (PI3Kδ)
O=S(=O)(Nc1cc(-c2ccc3ncnc(OC4CCOCC4)c3n2)cnc1Cl)c1ccc(F)cc1F,< 1 µM,< 1 µM,< 1 µM
CN1CCC(Oc2ncnc3ccc(-c4cnc(Cl)c(NS(=O)(=O)c5ccc(F)cc5F)c4)nc23)CC1,< 10 µM,< 1 µM,< 1 µM
O=S(=O)(Nc1cc(-c2ccc3ncnc(NC4CCOCC4)c3n2)cnc1Cl)c1ccc(F)cc1F,< 10 µM,< 10 µM,< 10 µM
